Laboratory results: PMC5749289, “Cytotoxicity Study of Cyclopentapeptide Analogues of Marine Natural Product Galaxamide towards Human Breast Cancer Cells” (Oxidative Medicine and Cellular Longevity, 2017)
Converted amounts (≈) assume the structure as drawn. Where a SMILES comes first, the peptide text is derived from it.

What was measured:
[1] = system: normal human umbilical vein endothelial cell line (HUVECs); format: cell-based; conditions: 48 h
Procedure: (§1) Human hepatocellular carcinoma HepG2, human breast carcinoma MCF-7, human epitheloid cervix carcinoma HeLa, human breast carcinoma MB-MDA-231 cell lines, and a normal human umbilical vein endothelial cell line (HUVECs) were obtained from the China Cell Bank of the Institute of Biochemistry and were cultured in a DMEM culture medium (DMEM, Corning, NY, USA) containing 10% fetal bovine serum (FBS, Hyclone, Logan, UT, USA), 1% penicillin-streptomycin, and an antifungal agent in a 5% CO2-humidified atmosphere at 37°C. The culture medium was replaced once in a day. Trypsin digestion method was adopted for cell propagation. Upon reaching 80–90% confluence, the cells were rinsed twice with PBS. A certain amount of 0.25% trypsin digestion solution was then added and maintained for 3–5 min at 37°C. Afterward, DMEM culture medium containing 10% fetal bovine serum was added to terminate the digestion. The cells were then blown well to form single-cell suspensions.
(§2) The cell viability was determined by measuring the ability of cells to transform MTT (3-(4,5-dimethylthiazol-2-yl)-2,5-diphenyltetrazolium bromide) (GENView, Houston, TX, USA) to a purple formazan dye. The cells were seeded in 96-well cell culture plates at 2.5 × 10^3 cells/well for 24 h. The cells were then incubated with galaxamide and its analogues for 48 h. After incubation, 20 μL/well of MTT solution (5 mg/mL phosphate buffered saline) was added and incubated for 5 h. The medium was aspirated and replaced with 100 μL/well of DMSO to dissolve the formazan salt. The color intensity of the formazan solution, which reflects the cell growth condition, was measured at 570 nm using a microplate spectrophotometer (SpectroAma™ 250, Winooski, VT, USA).

[2] = system: human epitheloid cervix carcinoma HeLa; test: cells; format: cell-based; conditions: 48 h
Procedure: as §1, §2

[3] = system: human breast carcinoma MCF-7; test: cells; format: cell-based
Procedure: as §1, §2

[4] = system: human breast carcinoma MB-MDA-231; test: cells; format: cell-based; conditions: 48 h
Procedure: as §1, §2

[5] = system: human hepatocellular carcinoma HepG2; test: cells; format: cell-based; conditions: 48 h
Procedure: as §1, §2

MCF-7 cells [6] = test: Mitochondrial membrane potential, JC-1 staining, flow cytometry; format: cell-based, human; conditions: MCF-7, 2.5, 5.0 and 10.0 μg/mL, 48 h
Procedure: The cell suspension (2 mL) with a concentration of 1 × 10^5 cells/mL was inoculated per well in 6-well plates for 12 h. After 48 h of incubation with galaxamide and representative compound at the concentration of 0, 2.5, 5, and 10 μg/mL, the supernatant was aspirated and the cells were washed twice with PBS and digested with 0.25% trypsin. The cells were suspended by pipetting, followed by centrifugation (1000 rpm, 5 min). The supernatant was aspirated and the cells were washed with PBS and centrifuged again to obtain a cell pellet. The cells were resuspended by adding and thoroughly mixing 500 μL of PBS in a microcentrifuge tube. Finally, the samples were stained with JC-1 (5,5′,6,6′-tetrachloro-1,1′,3,3′-tetraethylbenzimi-dazolylcarbocyanine iodide) and incubated in darkness at 37°C for 15 min. After the treatment, the cells were detected by flow cytometry.

MCF-7 cells [7] = test: Intracellular ROS assay, DCFH-DA, flow cytometry; format: cell-based, human; conditions: MCF-7, 2.5, 5.0 and 10.0 μg/mL, 48 h
Procedure: Two milliliters of cell suspension with a cell concentration of 1 × 10^5 cells/mL was inoculated per well in 6-well plates. After synchronization, the cells were incubated with galaxamide and representative analogue (0, 2.5, 5, and 10 μg/mL) for 48 h. Afterwards, the supernatant was aspirated and the cells were washed twice with PBS and digested with 0.25% trypsin. Then, DMEM supplemented with 10% fetal bovine serum was added to terminate digestion. The cells were suspended by pipetting, followed by centrifugation (1000 rpm, 5 min). The supernatant was aspirated and the cells were washed once with PBS and centrifuged again to obtain a cell pellet. The cells were resuspended by adding and thoroughly mixing […] in a microcentrifuge tube. The samples were then stained with DCFH-DA ([…]) and analyzed by flow cytometry.

MCF-7 cells [8] = test: Annexin V-FITC/PI apoptosis, flow cytometry; format: cell-based, human; conditions: MCF-7, 2.5, 5 and 10 μg/mL, 48 h
Procedure: The apoptotic cells were quantified using an Annexin V-FITC (fluorescein isothiocyanate) (Sigma-Aldrich, St. Louis, MO, USA) cell apoptosis assay kit according to the instruction provided with the kit. In brief, about 1.5 × 10^5 cells were plated in 6-well plates and treated with galaxamide and representative compound (0, 2.5, 5, and 10 μg/mL) for 48 h. The cells were resuspended in […] binding buffer. Afterwards, […] was added and then incubated in darkness at room temperature for 10 min. The cells were again resuspended in […] binding buffer and stained with […] (propidium iodide). The prepared cells were then analyzed using a flow cytometry (Coulter Epics Elite, Miami, FL, USA). The cells in the FITC-positive and PI-negative fractions were regarded as apoptotic cells.

MCF-7 cells [9] = test: Cell cycle analysis by PI staining, flow cytometry; format: cell-based, human; conditions: MCF-7, 2.5, 5.0 and 10.0 μg/mL, 48 h
Procedure: MCF-7 cells with the density of about 1.5 × 10^5 were incubated with galaxamide and representative analogue (0, 2.5, 5, and 10 μg/mL) for 48 h. Afterwards, collected cells were washed twice with PBS and centrifugation (1000 rpm, 5 min), then fixed using 70% ethanol for 12 h at 4°C. Ethanol was removed by centrifugation (2000 rpm, 5 min), and the cells were washed twice with PBS. Cells were then resuspended in […] and kept at 37°C for 15 min. The cell cycle was analyzed by flow cytometry measuring the amount of PI-labeled DNA in fixed cells.

[10] = from Table 1 IC50 values (fits MCF-7)

Row | SMILES | IC50 (μg/mL) values in various cell lines, HeLa [2] | IC50 (μg/mL) values in various cell lines, MCF-7 ([3]; 48 h) | IC50 (μg/mL) values in various cell lines, MD-MBA-231 [4] | IC50 (μg/mL) values in various cell lines, HepG2 [5] | IC50 (μg/mL) values in various cell lines, HUVECs [1] | JC-1 fluorescence ratio (red/green), MMP (MCF-7 cells [6]) | intracellular ROS (MCF-7 cells [7]) | also measured
1 | CC(C)C[C@@H]1NC(=O)[C@H](CC(C)C)N(C)C(=O)[C@H](Cc2ccccc2)NC(=O)[C@H](CC(C)C)N(C)C(=O)[C@H](CC(C)C)NC1=O [Compound 1, cyclo(Phe-N-Me-Leu-Leu-Leu-N-Me-Leu)] | 13.22 ± 1.12 µg/mL (≈ 21.1 µM) | 4.76 ± 1.36 µg/mL (≈ 7.58 µM) | 5.83 ± 0.45 µg/mL (≈ 9.29 µM) | 6.25 ± 1.03 µg/mL (≈ 9.95 µM) | >40 µg/mL | – | – | –
2 | N.N.[Cl][Pt][Cl] [DPP, reference compound] | – | – | – | – | – | – | – | IC50 (μg/mL) values in various cell lines, HeLa ([2]; HeLa, MTT, mean ± SD of three experiments): 8.90 ± 0.89 µg/mL; IC50 (μg/mL) values in various cell lines, MCF-7 ([3]; MCF-7, MTT, 48 h, mean ± SD of three experiments): 14.61 ± 2.01 µg/mL; IC50 (μg/mL) values in various cell lines, MD-MBA-231 ([4]; MD-MBA-231, MTT, mean ± SD of three experiments): 13.75 ± 0.56 µg/mL; IC50 (μg/mL) values in various cell lines, HepG2 ([5]; HepG2, MTT, mean ± SD of three experiments): 10.43 ± 1.23 µg/mL
3 | COc1cccc2c1C(=O)c1c(O)c3c(c(O)c1C2=O)C[C@@](O)(C(=O)CO)C[C@@H]3O[C@H]1C[C@H](N)[C@H](O)[C@H](C)O1 [Doxorubicin, reference compound] | – | – | – | – | – | – | – | IC50 ([2]; Homo sapiens, HeLa, MTT, mean ± SD of three experiments, read-out: IC50 (μg/mL) values in various cell lines, HeLa): 0.32 ± 0.22 µg/mL (≈ 0.589 µM); IC50 ([3]; Homo sapiens, MCF7, MCF-7, MTT, 48 h, mean ± SD of three experiments, read-out: IC50 (μg/mL) values in various cell lines, MCF-7): 0.5 ± 0.48 µg/mL (≈ 0.92 µM); IC50 ([4]; Homo sapiens, MD-MBA-231, MTT, mean ± SD of three experiments, read-out: IC50 (μg/mL) values in various cell lines, MD-MBA-231): 1.29 ± 0.57 µg/mL (≈ 2.37 µM); IC50 ([5]; Homo sapiens, HepG2, MTT, mean ± SD of three experiments, read-out: IC50 (μg/mL) values in various cell lines, HepG2): 2.27 ± 0.24 µg/mL (≈ 4.18 µM)
4 | CC(C)C[C@@H]1NC(=O)[C@H](CC(C)C)N(C)C(=O)[C@H](CC(C)C)NC(=O)[C@H](CC(C)C)N(C)C(=O)[C@H](CC(C)C)NC1=O [Galaxamide, galaxamide] (HELM PEPTIDE1{L.L.[meL].L.[meL]}$PEPTIDE1,PEPTIDE1,1:R1-5:R2$$$V2.0) | – | – | – | – | – | reduced dose dependently | induced ROS in a dose-dependent manner | –

Now from value to compound, other results behind:

Row | IC50 (μg/mL) values in various cell lines, HeLa [2] | IC50 (μg/mL) values in various cell lines, MCF-7 ([3]; 48 h) | IC50 (μg/mL) values in various cell lines, MD-MBA-231 [4] | IC50 (μg/mL) values in various cell lines, HepG2 [5] | SMILES | IC50 (μg/mL) values in various cell lines, HUVECs [1] | JC-1 fluorescence ratio (red/green), MMP (MCF-7 cells [6]) | intracellular ROS (MCF-7 cells [7]) | also measured
5 | – | 3.16 ± 0.92 µg/mL (≈ 4.66 µM) | 4.48 ± 2.24 µg/mL (≈ 6.61 µM) | 8.42 ± 1.82 µg/mL (≈ 12.4 µM) | CC(C)C[C@@H]1NC(=O)[C@H](CC(C)C)N(C)C(=O)[C@H](Cc2ccc3ccccc3c2)NC(=O)[C@H](CC(C)C)N(C)C(=O)[C@H](CC(C)C)NC1=O [Compound 2, cyclo(Nal-N-Me-Leu-Leu-Leu-N-Me-Leu)] (HELM PEPTIDE1{[O=C([C@H](Cc1ccc2ccccc2c1)N[*:1])[*:2]].[meL].L.L.[meL]}$PEPTIDE1,PEPTIDE1,1:R1-5:R2$$$V2.0) | >40 µg/mL | – | – | –
6 | 5.32 ± 0.42 µg/mL (≈ 7.98 µM) | 1.72 ± 0.85 µg/mL (≈ 2.58 µM) | 3.51 ± 1.32 µg/mL (≈ 5.26 µM) | 3.98 ± 0.71 µg/mL (≈ 5.97 µM) | CC(C)C[C@@H]1NC(=O)[C@H](CC(C)C)N(C)C(=O)[C@H](Cc2c[nH]c3ccccc23)NC(=O)[C@H](CC(C)C)N(C)C(=O)[C@H](CC(C)C)NC1=O [Compound 3, cyclo(Trp-N-Me-Leu-Leu-Leu-N-Me-Leu)] (HELM PEPTIDE1{L.L.[meL].W.[meL]}$PEPTIDE1,PEPTIDE1,1:R1-5:R2$$$V2.0) | >40 µg/mL | reduced dose dependently | induced ROS in a dose-dependent manner | cytotoxicity relative to parent structure galaxamide [3]: almost sixfold higher cytotoxicity; fold less active than doxorubicin [3, 10]: 3.44 fold; fold more active than anticancer drug DPP [3, 10]: 8.49 fold; induction of apoptosis (MCF-7 cells [8]): significantly induced the apoptosis of human breast cancer MCF-7 cells in a dose-dependent manner; cell cycle arrest (MCF-7 cells [9]): induced a significant G1 phase arrest of cell cycle progression in a dose-dependent manner
